Earlier results, collected in patent publication US20130210879A1, “FORMULATIONS OF BENDAMUSTINE” (priority 2012, published 2013).

**Q.** For Cn1c(CCCC(=O)O)nc2cc(N(CCCl)CCCl)ccc21 [Bendamustine], which stability in water is on record?
**A.** The stability in water was “measured in hours”.
